Data: patent US10092657B2, “Opsonized β-glucan preparations and methods” (Biothera, Inc., priority 2011, dated 2018)
Values belong to the compound of their own block, whether it stands above or below them.

Tests used:
[1] = tested on: human monocytes; experiment: Binding studies on the role of complement proteins in serum, monocytes; type: cell-based; conditions: for Effect of the agent added to serum or media on binding of PGG β-glucan: compstatin/control peptide 20 or 100 μM, methylamine 0.67%, 166-32 20 μg/mL, HSA 10%
Description: (§1) Heat-inactivated (HI) serum was prepared by incubating serum in a 56° C. water bath for 30 minutes. […] Treatment of serum with methylamine (MA) was done by incubating serum with 0.67% of methylamine for 2.5 hours at 37° C., followed by three washes with DPBS using Amicon centrifugal filter unit with a 3K MW cut-off (Millipore, Billerica, Mass.). DPBS-treated serum was prepared in the same manner and used as control serum for MA-treated serum. For blocking of factor D in the serum, 166-32 at concentration 20 μg/mL was incubated with serum on ice for 30 minutes, and then used for binding studies. For binding experiments in the presence of EGTA or MgEGTA, serum was incubated with 10 mM EGTA with or without 10 mM MgCl2 for 10 minutes at room temperature. The untreated and EGTA/MgEGTA-treated serum was then used to pre-treat PGG and perform binding studies as described earlier.

[2] = target: T1, iC3b (Homo sapiens, UniProt P01024); experiment: ELISA for iC3b deposition on immobilized PGG β-glucan; type: binding; conditions: for Effect of serum treatment on iC3b deposition on immobilized β-glucan: methylamine 0.67%, 10 mM EGTA, 10 mM EGTA+10 mM MgCl2
T1 construct: from tissue
T1 sequence (P01024 749-1303 limits assumed): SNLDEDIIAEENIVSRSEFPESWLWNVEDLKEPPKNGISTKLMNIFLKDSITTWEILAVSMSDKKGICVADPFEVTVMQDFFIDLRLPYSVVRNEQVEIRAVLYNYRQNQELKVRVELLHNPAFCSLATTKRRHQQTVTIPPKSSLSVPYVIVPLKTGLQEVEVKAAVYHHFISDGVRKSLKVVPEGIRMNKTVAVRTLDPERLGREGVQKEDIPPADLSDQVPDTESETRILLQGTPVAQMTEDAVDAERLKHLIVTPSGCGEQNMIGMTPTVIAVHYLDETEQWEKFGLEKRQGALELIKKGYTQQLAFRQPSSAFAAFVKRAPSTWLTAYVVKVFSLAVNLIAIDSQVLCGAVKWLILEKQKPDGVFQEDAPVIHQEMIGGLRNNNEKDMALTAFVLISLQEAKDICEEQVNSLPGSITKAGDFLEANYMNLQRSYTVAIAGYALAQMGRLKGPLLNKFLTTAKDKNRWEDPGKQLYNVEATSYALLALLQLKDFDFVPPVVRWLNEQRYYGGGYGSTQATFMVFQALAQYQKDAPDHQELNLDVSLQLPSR
T1 sequence (P01024 23-667 partner limits assumed): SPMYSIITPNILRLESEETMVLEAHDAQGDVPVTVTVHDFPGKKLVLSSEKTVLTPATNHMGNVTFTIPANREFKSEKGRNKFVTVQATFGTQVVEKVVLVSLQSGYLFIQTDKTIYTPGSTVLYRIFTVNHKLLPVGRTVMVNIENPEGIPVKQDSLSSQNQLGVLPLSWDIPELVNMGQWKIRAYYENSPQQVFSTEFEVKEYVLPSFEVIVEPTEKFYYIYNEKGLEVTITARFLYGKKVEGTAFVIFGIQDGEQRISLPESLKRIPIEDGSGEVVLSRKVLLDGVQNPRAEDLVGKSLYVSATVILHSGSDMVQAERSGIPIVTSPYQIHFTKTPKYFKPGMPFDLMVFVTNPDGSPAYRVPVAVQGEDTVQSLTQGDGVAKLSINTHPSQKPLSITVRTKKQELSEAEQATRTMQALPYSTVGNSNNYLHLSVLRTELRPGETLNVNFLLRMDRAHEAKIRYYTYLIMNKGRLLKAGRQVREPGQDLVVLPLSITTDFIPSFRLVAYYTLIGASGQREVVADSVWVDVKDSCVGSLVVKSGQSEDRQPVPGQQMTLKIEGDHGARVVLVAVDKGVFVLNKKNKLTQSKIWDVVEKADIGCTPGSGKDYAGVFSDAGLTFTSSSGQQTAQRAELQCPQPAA
T1 sequence (P01024 1321-1663 partner limits assumed): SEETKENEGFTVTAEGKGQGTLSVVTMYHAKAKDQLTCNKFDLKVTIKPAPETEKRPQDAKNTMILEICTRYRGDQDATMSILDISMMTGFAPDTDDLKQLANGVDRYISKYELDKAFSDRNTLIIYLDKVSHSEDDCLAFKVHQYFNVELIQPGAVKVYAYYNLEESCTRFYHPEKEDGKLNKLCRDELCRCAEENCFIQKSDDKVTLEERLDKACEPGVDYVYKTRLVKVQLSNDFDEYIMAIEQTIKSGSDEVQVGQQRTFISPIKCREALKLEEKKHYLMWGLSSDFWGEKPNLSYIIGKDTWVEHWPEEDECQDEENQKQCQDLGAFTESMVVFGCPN
Description: PGG β-glucan or dextran was immobilized on wells of a 96-well polystyrene plate (COSTAR, Coming, Inc., Lowell, Mass.) by drying the glucans at 50° C. followed by UV cross-linking. The glucan-coated plate was first blocked with 1% BSA before incubation with untreated serum or serum undergone various treatments as described in binding studies, diluted 1:2 with wash buffer (PBS/0.05% Tween-20) for 30 minutes at 37° C. After washing the serum from the plate, the bound iC3b was probed using the anti-iC3b monoclonal antibody followed by biotin-labeled goat anti-mouse IgG Ab. The amount of immobilized biotin-labeled antibody was determined using streptavidin peroxidase and TMB substrate solution (KPL, Gaithersburg, Md.). OD450 of each well was measured with the spectrophotometer SpectraMAX 250 (Molecular Devices, Sunnyvale, Calif.). Fold change was calculated as OD450 of wells containing immobilized β-glucan divided by OD450 of wells containing no β-glucan, both incubated in the presence of treated or untreated serum.

[3] = tested on: human neutrophils; experiment: Binding studies on the role of complement proteins in serum, neutrophils; type: cell-based; conditions: for Effect of the agent added to serum or media on binding of PGG β-glucan: compstatin/control peptide 20 or 100 μM, methylamine 0.67%, 166-32 20 μg/mL, HSA 10%
Description: as §1

[4] = tested on: human neutrophils; experiment: Binding of DTAF-labeled PGG β-glucan to human neutrophils, with excess unlabeled competitor; type: cell-based; conditions: 10 mg/mL unlabeled competitor; 25 μg/mL DTAF-labeled β-glucan
Description: In early optimization experiments, neutrophils, monocytes, and T cells were identified by staining with fluorescently labeled anti-CD 15, anti-CD 14, or anti-CD3 Abs, respectively. Events were collected on a LSRII flow cytometer (BD Biosciences, San Jose, Calif.) and analysis was performed using FLOWJO (Tree Star, Ashland, Oreg.). For assessing binding of DTAF-labeled PGG β-glucan to human neutrophils, 25 βg/mL, 100 μg/mL, or 400 μg/mL of labeled β-glucan was added to neutrophils resuspended in RPMI/10% serum, incubated in a 37° C., 5% CO2 humidified incubator for one hour, washed twice with cold FACS buffer, and fixed with 1% paraformaldehyde. Surface binding of DTAF-conjugated β-glucan was subsequently assessed by flow cytometric analysis.

[5] = target: T1, iC3b; experiment: Immunoprecipitation of PGG β-glucan with BfD IV and detection of pulled-down iC3b; type: binding; conditions: glucan incubated with regular serum
Description: PGG β-glucan or dextran at concentration 60-80 mg/mL was incubated with regular or HI serum at 1:10 volume ratio for 30 minutes in a 37° C. water bath. BfD IV Ab was added to the serum/β-glucan mixture and incubated at room temperature for additional 30 minutes. Magnetic beads conjugated with rat anti-mouse IgM (DYNABEADS, Invitrogen, Camarillo, Calif.) were washed three times with DPBS and incubated with serum-PGG β-glucan-BfD IV mixture for another 30 minutes at room temperature. The beads were separated magnetically and iC3b pulled-down along with immunoprecipitated PGG was probed using FITC-conjugated complement C3 Ab by flow cytometer.

[6] = tested on: sC5b-9 complex; experiment: Measurement of fluid-phase SC5b-9 complex formation in the serum; type: biochemical, human; conditions: serum treated with 10 mM EGTA with or without 10 mM MgCl2
Description: The MicroVue SC5b-9 EIA kit was used to measure activation of the classical and alternative pathways of complement according to the vendor's instruction (Quidel Corp., San Diego, Calif.). Briefly, the serum, untreated or treated was mixed with PBS, Ab-sensitized sheep RBC (SRBC), or 20 units of CVF and added to plate wells pre-coated with anti-sC5b-9 monoclonal antibody. The plate was incubated at 37° C. for 60 minutes, followed by five washes with the provided wash buffer. The plate was then incubated with the provided SC5b-9 Plus Conjugate, which contained horseradish peroxidase-conjugated Ab specific for sC5b-9 at room temperature for 30 minutes. The plate was washed five times, incubated with the substrate for 15 minutes at room temperature to initiate the enzymatic reaction and subsequently quenched with the stop solution. OD450 Was measured using the spectrophotometer SpectraMAX 250. The concentration of fluid phase sC5b-9 present in the samples was determined from the standard curve generated with the provided sC5b-9 standards.

[7] = tested on: human neutrophils; experiment: Binding of PGG β-glucan after serum pre-treatment, neutrophils; type: cell-based; conditions: 10 mM EGTA with or without 10 mM MgCl2; vs untreated serum
Description: (§2) PGG β-glucan at concentration 60-80 mg/mL was incubated with human serum at 1:10 volume ratio for 30 minutes in a 37° C. water bath. The serum-pretreated PGG β-glucan was added to neutrophils at 200 μg/mL or to PBMC at 100 μg/mL resuspended in RPM1 containing either 10% regular autologous serum or 10% HI serum at indicated time and temperature of incubation. Binding was then determined as described previously.
(§3) To determine the role of complement proteins in binding, experiments were performed as described above except for using serum containing 10% HI, compstatin-treated or methylamine (MA)-treated, EGTA- or EGTA+MgCl2 (MgEGTA)-treated, or factor D-blocked serum. Heat-inactivated (HI) serum was prepared by incubating serum in a 56° C. water bath for 30 minutes. […] Treatment of serum with methylamine (MA) was done by incubating serum with 0.67% of methylamine for 2.5 hours at 37° C., followed by three washes with DPBS using Amicon centrifugal filter unit with a 3K MW cut-off (Millipore, Billerica, Mass.). DPBS-treated serum was prepared in the same manner and used as control serum for MA-treated serum. For blocking of factor D in the serum, 166-32 at concentration 20 μg/mL was incubated with serum on ice for 30 minutes, and then used for binding studies. […]

[8] = tested on: human monocytes; experiment: Binding of PGG β-glucan after serum pre-treatment, monocytes; type: cell-based; conditions: 10 mM EGTA with or without 10 mM MgCl2; vs untreated serum
Description: as §2, §3

[9] = 100 μM compstatin-treated serum vs control peptide, C3 blocking, three donors

iC3b pulled down with BfD IV immunoprecipitate [5]: absence of iC3b | Fold increase of iC3b detected on immobilized glucan compared to background ([2]; 300 μg/mL immobilized, regular serum 30 minutes at 37° C.): significantly less iC3b detected
Compound: dextran [reference compound]
Blocking of DTAF-labeled β-glucan staining by excess unlabeled glucan [4]: did not block binding

Effect of the agent added to serum or media on binding of PGG β-glucan [1]: no effect on binding
Compound: control peptide: control peptide IAVVQDWGHHRAT (SEQ ID NO:2) (control polypeptide)
Effect of the agent added to serum or media on binding of PGG β-glucan [3]: no effect on binding

The next lines start with the compound.

Compound: CN [methylamine]
Effect of the agent added to serum or media on binding of PGG β-glucan [1]: abrogated the ability of PGG β-glucan to bind to cells | Effect of serum treatment on iC3b deposition on immobilized β-glucan [2]: complete inhibition of iC3b deposition | Effect of the agent added to serum or media on binding of PGG β-glucan [3]: abrogated the ability of PGG β-glucan to bind to cells

Compound: O=C(O)CN(CCOCCOCCN(CC(=O)O)CC(=O)O)CC(=O)O [EGTA]
Effect on CVF-activated alternative pathway (sC5b-9 formation) [6]: completely blocked both the classical and alternative pathways to background levels | Effect on SRBC-activated classical pathway (sC5b-9 formation) [6]: completely blocked both the classical and alternative pathways to background levels | Rescue of binding to cells in HI serum by PGG β-glucan pre-opsonized in treated serum [7]: rescue of binding was diminished | Rescue of binding to cells in HI serum by PGG β-glucan pre-opsonized in treated serum [8]: rescue of binding was diminished | Effect of serum treatment on iC3b deposition on immobilized β-glucan [2]: completely inhibited

Compound: CC[C@H](C)[C@H](N)C(=O)N[C@H]1CSSC[C@@H](C(=O)N[C@H](C(N)=O)[C@@H](C)O)NC(=O)[C@H](CCCN=C(N)N)NC(=O)[C@H](Cc2cnc[nH]2)NC(=O)[C@H](Cc2cnc[nH]2)NC(=O)CNC(=O)[C@H](Cc2c[nH]c3ccccc23)NC(=O)[C@H](CC(=O)O)NC(=O)[C@H](CCC(N)=O)NC(=O)[C@H](C(C)C)NC(=O)[C@H](C(C)C)NC1=O [compstatin]
Average percentage of inhibition of β-glucan binding [1, 9]: 80% | Range of percentage of inhibition of β-glucan binding [1, 9]: 62-92% | Effect of the agent added to serum or media on binding of PGG β-glucan [1]: inhibited binding of β-glucan in a concentration-dependent manner | Average percentage of inhibition of β-glucan binding [3, 9]: 95% | Range of percentage of inhibition of β-glucan binding [3, 9]: 90-98% | Effect of the agent added to serum or media on binding of PGG β-glucan [3]: inhibited binding of β-glucan in a concentration-dependent manner
